Tests used:
σ1-receptor = biological target: T1, σ1-receptor (Cavia porcellus, UniProt Q60492); experiment: Sigma-1 receptor radioligand binding, [3H](+)-pentazocine, brain membranes; details: [3H](+)-pentazocine 0.5 nM, guinea pig brain membranes; for % Binding σ1 10^−7M: compound concentration 10^−7 M; for % Binding σ1 10^−8M: compound concentration 10^−8 M
T1 construct: guinea pig brains are homogenized; from tissue; host or cells: guinea pig brain membranes
Description: Brain membrane preparation and binding assays for the σ1-receptor are performed as described (DeHaven-Hudkins et al., 1992) with some modifications. In brief, guinea pig brains are homogenized in 10 vols. (w/v) of Tris-HCl 50 mM 0.32 M sucrose, pH 7.4 is centrifuged at 1000 g for 10 min at 4° C. and the supernatants collected and centrifuged again at 48000 g for 15 min at 4° C. The pellet is resuspended in 10 volumes of Tris-HCl buffer (50 mM, pH 7.4), incubated at 37° C. for 30 min, and centrifuged at 48000 g for 20 min at 4° C. Following this, the pellet is resuspended in fresh Tris-HCl buffer (50 mM, pH 7.4) and stored on ice until use.
Each assay tube contain 10 μL of [^3H](+)-pentazocine (final concentration of 0.5 nM), 900 μL of the tissue suspension to a final assay volume of 1 mL and a final tissue concentration of approximately 30 mg tissue net weight/mL. […] All tubes are incubated at 37° C. for 150 min before termination of the reaction by rapid filtration over Schleicher & Schuell GF 3362 glass fibre filters [previously soaked in a solution of 0.5% polyethylenimine for at least 1 h]. Filters are then washed four times with 4 mL of cold Tris-HCl buffer (50 mM, pH 7.4). Following addition of scintillation cocktail, the samples are allowed to equilibrate overnight. The amount of bound radioactivity is determined by liquid scintillation spectrometry using a Wallac Winspectral 1414 liquid scintillation counter. Protein concentrations are determined by the method of Lowry et al. (1951).

sigma 1 (σ-1) site = sigma 1 (σ-1) site (Homo sapiens, UniProt Q99720); details: background, in words; cited from earlier work
sigma (σ-2) site = sigma (σ-2) site (Homo sapiens, UniProt Q5BJF2); details: background, in words; cited from earlier work
Sequence of sigma (σ-2) site (Q5BJF2 whole entry): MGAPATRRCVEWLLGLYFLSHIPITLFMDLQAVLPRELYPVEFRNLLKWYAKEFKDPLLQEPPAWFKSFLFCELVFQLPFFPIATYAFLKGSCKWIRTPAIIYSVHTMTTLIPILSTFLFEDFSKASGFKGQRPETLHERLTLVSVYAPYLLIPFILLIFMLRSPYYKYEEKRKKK

T1 sequence (Q60492 whole entry): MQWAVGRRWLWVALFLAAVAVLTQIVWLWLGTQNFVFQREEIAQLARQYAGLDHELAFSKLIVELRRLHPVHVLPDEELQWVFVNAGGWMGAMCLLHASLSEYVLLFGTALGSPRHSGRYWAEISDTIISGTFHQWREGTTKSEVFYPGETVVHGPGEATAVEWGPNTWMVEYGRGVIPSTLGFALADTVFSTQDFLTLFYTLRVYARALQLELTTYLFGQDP
Sequence of sigma 1 (σ-1) site (Q99720 whole entry): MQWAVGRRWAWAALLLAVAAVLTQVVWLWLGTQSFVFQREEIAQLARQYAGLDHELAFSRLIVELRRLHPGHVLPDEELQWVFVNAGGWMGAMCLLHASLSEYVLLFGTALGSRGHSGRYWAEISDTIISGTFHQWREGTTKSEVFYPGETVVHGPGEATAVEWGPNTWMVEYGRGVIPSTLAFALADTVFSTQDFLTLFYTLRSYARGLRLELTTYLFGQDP

Molecule	% Binding σ1 10^−7M (σ1-receptor) [%]	% Binding σ1 10^−8M (σ1-receptor) [%]	affinity for the sigma 1 (σ-1) site (sigma 1 (σ-1) site)	affinity for the sigma (σ-2) site (sigma (σ-2) site)
CCOC(=O)[C@H](C)N1C[C@H]2C=C(c3ccccc3)C(=O)[C@H]2C1 [Example 11]	33.2	25.6		
CCCCC1=C[C@H]2CN([C@@H](C)C(=O)OCC)C[C@H]2C1=O [Example 14, (2S)-ethyl 2-((3aS,6aR)-5-butyl-4-oxo-1,3a,4,6a-tetrahydrocyclopenta[c]pyrrol-2(1H)-yl)propanoate]	39.6	28.8		
COC(=O)[C@H](c1ccccc1)N1C[C@@H]2C=C(c3ccccc3)C(=O)[C@@H]2C1 [Example 4]	32.3	24.8		
COC(=O)[C@H](c1ccccc1)N1C[C@H]2C=C(c3ccccc3)C(=O)[C@H]2C1 [Example 3]	31.3	28.0		
SKF 10047			nanomolar	micromolar
CCCCC1=C[C@@H]2CN([C@@H](C)C(=O)OCC)C[C@@H]2C1=O [Example 13, (2S)-ethyl2-((3aR,6aS)-5-butyloxo-1,3a,4,6a-tetrahydrocyclopenta[c]pyrrol-2(1H)-yl)propanoate]	26.9	17.6		
CCOC(=O)[C@H](C)N1C[C@@H]2C=C(c3ccccc3)C(=O)[C@@H]2C1 [Example 12]	32.4	16.7		
